Consider 17 molecules from patent publication US20250250230A1, “HETEROCYCLIC COMPOUND” (TAKEDA PHARMACEUTICAL COMPANY LIMITED, priority 2022, published 2025).

This assay addresses T1, human orexin type 2 receptor (Homo sapiens, UniProt O43614).
T1 construct: expressed in transfected cells
T1 sequence (O43614 1-444): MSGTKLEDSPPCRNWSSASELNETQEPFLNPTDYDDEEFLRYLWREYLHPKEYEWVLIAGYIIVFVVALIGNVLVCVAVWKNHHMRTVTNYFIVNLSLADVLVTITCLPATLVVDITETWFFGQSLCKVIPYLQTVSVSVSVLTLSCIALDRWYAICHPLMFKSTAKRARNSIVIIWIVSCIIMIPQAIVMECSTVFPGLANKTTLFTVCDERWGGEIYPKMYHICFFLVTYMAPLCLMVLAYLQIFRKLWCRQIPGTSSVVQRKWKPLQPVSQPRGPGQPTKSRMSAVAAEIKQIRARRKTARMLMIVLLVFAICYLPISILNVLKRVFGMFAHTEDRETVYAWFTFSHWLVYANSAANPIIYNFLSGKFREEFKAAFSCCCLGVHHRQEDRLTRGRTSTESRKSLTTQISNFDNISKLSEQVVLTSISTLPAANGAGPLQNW
As to the kind of experiment: Measurement of orexin type 2 receptor agonist activity (calcium fluorescence, Fluo-4 AM, FDSS). The following applies: test compound 3 μM; CHO cells expressing human OX2 receptor; DMSO = 0%, orexin A (human) = 100%. It is filed as cell-based. The text has this: To obtain a cell clone stably expressing human orexin type 2 receptor, human orexin type 2 receptor cDNA was inserted into pcDNA3.1(+) plasmid vector (Invitrogen), and a plasmid DNA for expression of human orexin type 2 receptor (pcDNA3.1(+)/hOX2R) was cloned. The plasmid DNA was introduced into CHO-K1 cell by an electroporation method, and human orexin type 2 receptor expressing clone cells were obtained by limiting dilution method by using G418 drug resistance as a selection marker.
CHO cells forcibly expressing human OX2 receptor were seeded in each well of 384 well black transparent bottom plate (BD Falcon) at 10,000 cells/well, and cultured for one day in a 5% CO2 incubator at 37° C. After removal of the medium in the cell plate, assay buffer A containing a calcium indicator (HBSS (Thermo Fisher Scientific), 20 mM HEPES (Thermo Fisher Scientific), 0.1% BSA (Sigma-Aldrich), 2.5 μg/mL Fluo-4 AM (DOJINDO Chemical), 0.08% Pluronic F127 (DOJINDO Chemical), 1.25 mM probenecid (DOJINDO Chemical)) was added at 30 μL/well. The plate was stood for 30 min in a 5% CO2 incubator at 37° C., and further stood at room temperature for 30 min. A test compound prepared by diluting with assay buffer B (HBSS, 20 mM HEPES, 0.1% BSA) was added at 10 μL/well, and the fluorescence value was measured by FDSSμCELL (Hamamatsu Photonics K.K.) every one sec for 1 min, and thereafter every two sec for […]. The activity (%) of the test compound was calculated assuming that variation in the fluorescence value when DMSO was added instead of the test compound was 0%, and variation in the fluorescence value when orexin A (human) (PEPTIDE INSTITUTE, INC.) was added at the final concentration of 10 nM was 100%.

Consider `CS(=O)(=O)N[C@H]1CCN(C(=O)C2CC2c2cccc(F)c2-c2c(F)cccc2F)C1` (mixture of isomers) [Example 192, a mixture of N-{(3S)-1-[(1R,2R)-2-(2′,6,6′-trifluoro[1,1′-biphenyl]-2-yl)cyclopropane-1-carbonyl]pyrrolidin-3-yl}methanesulfonamide and N-{(3S)-1-[(1S,2S)-2-(2′,6,6′-trifluoro[1,1′-biphenyl]-2-yl)cyclopropane-1-carbonyl]pyrrolidin-3-yl}methanesulfonamide], for which the “OX2R agonist activity (3 μM, %)” value was found to be 95%.

In the case of `CS(=O)(=O)NC1CCCN(C(=O)C2CC2c2sccc2-c2c(F)cccc2F)C1` (racemic) [Example 223, a mixture of rac-N-[(3R)-1-{(1R,2R)-2-[3-(2,6-difluorophenyl)thiophen-2-yl]cyclopropane-1-carbonyl}piperidin-3-yl]methanesulfonamide and rac-N-[(3S)-1-{(1R,2R)-2-[3-(2,6-difluorophenyl)thiophen-2-yl]cyclopropane-1-carbonyl}piperidin-3-yl]methanesulfonamide], the “OX2R agonist activity (3 μM, %)” value is given as 81%.

Consider `CN(C)S(=O)(=O)NCC1CCN1C(=O)C1CC1c1ccccc1-c1c(F)cccc1F` (racemic) [Example 204, a mixture of rac-N′-({(2R)-1-[(1R,2R)-2-(2′,6′-difluoro[1,1′-biphenyl]-2-yl)cyclopropane-1-carbonyl]azetidin-2-yl}methyl)-N,N-dimethylsulfuric diamide and rac-N′-({(2S)-1-[(1R,2R)-2-(2′,6′-difluoro[1,1′-biphenyl]-2-yl)cyclopropane-1-carbonyl]azetidin-2-yl}methyl)-N,N-dimethysulfuric diamide], for which the “OX2R agonist activity (3 μM, %)” value is reported as 96%.

With `C[C@H]1CN(C(=O)[C@@H]2C[C@@]2(F)c2ccccc2-c2c(F)cccc2F)C[C@@H](CNS(C)(=O)=O)O1` [Example 364, N-({(2S,6S)-4-[(1S,2S)-2-(2′,6′-difluoro[1,1′-biphenyl]-2-yl)-2-fluorocyclopropane-1-carbonyl]-6-methylmorpholin-2-yl}methyl)methanesulfonamide], the “OX2R agonist activity (3 μM, %)” value is listed as 88%.

Regarding `O=C([C@@H]1C[C@H]1c1ccccc1-c1c(F)cccc1F)N1CC[C@H]1CNS(=O)(=O)N1CCC1` [Example 334, N-({(2S)-1-[(1R,2R)-2-(2′,6′-difluoro[1,1′-biphenyl]-2-yl)cyclopropane-1-carbonyl]azetidin-2-yl}methyl)azetidine-1-sulfonamide], the “OX2R agonist activity (3 μM, %)” value is given as 96%.

Take `CCS(=O)(=O)N[C@H]1CCCN(C(=O)[C@@H]2C[C@H]2c2c(F)cccc2-c2c(F)cccc2F)C1` [Example 307, N-{(3S)-1-[(1R,2R)-2-(2′,3,6′-trifluoro[1,1′-biphenyl]-2-yl)cyclopropane-1-carbonyl]piperidin-3-yl}ethanesulfonamide]: the “OX2R agonist activity (3 μM, %)” value is 100%.

Regarding `C[C@@H]1CN(C(=O)[C@@H]2C[C@H]2c2ccccc2-c2c(F)cccc2F)C[C@H]1NS(C)(=O)=O` [Example 264, N-{(3S,4R)-1-[(1R,2R)-2-(2′,6′-difluoro[1,1′-biphenyl]-2-yl)cyclopropane-1-carbonyl]-4-methylpyrrolidin-3-yl}methanesulfonamide], the “OX2R agonist activity (3 μM, %)” value came out at 97%.

As to `O=C([C@@H]1C[C@H]1c1ccccc1-c1c(F)cccc1F)N1CCO[C@H](CNS(=O)(=O)N2CCC2)C1` [Example 338, N-({(2S)-4-[(1R,2R)-2-(2′,6′-difluoro[1,1′-biphenyl]-2-yl)cyclopropane-1-carbonyl]morpholin-2-yl}methyl)azetidine-1-sulfonamide], the “OX2R agonist activity (3 μM, %)” value was determined as 98%.

`CS(=O)(=O)NC1CCCN(C(=O)C2CC2c2ccc(F)cc2-c2ccccc2)CC1` (racemic) [Example 87, a mixture of rac-N-{(4R)-1-[(1R,2R)-2-(5-fluoro[1,1′-biphenyl]-2-yl)cyclopropane-1-carbonyl]azepan-4-yl}methanesulfonamide and rac-N-{(4S)-1-[(1R,2R)-2-(5-fluoro[1,1′-biphenyl]-2-yl)cyclopropane-1-carbonyl]azepan-4-yl}methanesulfonamide]: the “OX2R agonist activity (3 μM, %)” value was 81%.

For the molecule `CS(=O)(=O)N[C@H]1CCN(C(=O)C2(C#N)CC2c2ccccc2-c2c(F)cccc2F)C1` (mixture of isomers) [Example 316, a mixture of rac-N-{(3S)-1-[(1R,2S)-1-cyano-2-(2′,6′-difluoro[1,1′-biphenyl]-2-yl)cyclopropane-1-carbonyl]pyrrolidin-3-yl}methanesulfonamide and N-{(3S)-1-[(1S,2R)-1-cyano-2-(2′,6′-difluoro[1,1′-biphenyl]-2-yl)cyclopropane-1-carbonyl]pyrrolidin-3-yl}methanesulfonamide], the “OX2R agonist activity (3 μM, %)” value came out at 88%.

On to `COCC1(C(=O)N2CC[C@H](NS(C)(=O)=O)C2)CC1c1ccccc1-c1c(F)cccc1F` (stereo partly drawn) [Example 346, N-{(3S)-1-[(1R,2S)-2-(2′,6′-difluoro[1,1′-biphenyl]-2-yl)-1-(methoxymethyl)cyclopropane-1-carbonyl]pyrrolidin-3-yl}methanesulfonamide, or N-{(3S)-1-[(1S,2R)-2-(2′,6′-difluoro[1,1′-biphenyl]-2-yl)-1-(methoxymethyl)cyclopropane-1-carbonyl]pyrrolidin-3-yl}methanesulfonamide], for which the “OX2R agonist activity (3 μM, %)” value is listed as 100%.

On to `CCC(NS(C)(=O)=O)[C@@H]1CCN1C(=O)[C@@H]1C[C@@]1(F)c1ccccc1-c1c(F)cccc1F` (stereo partly drawn) [Example 379, N-[(1R)-1-{(2S)-1-[(1S,2S)-2-(2′,6′-difluoro[1,1′-biphenyl]-2-yl)-2-fluorocyclopropane-1-carbonyl]azetidin-2-yl}propyl]methanesulfonamide, or N-[(1S)-1-{(2S)-1-[(1S,2S)-2-(2′,6′-difluoro[1,1′-biphenyl]-2-yl)-2-fluorocyclopropane-1-carbonyl]azetidin-2-yl}propyl]methanesulfonamide], for which the “OX2R agonist activity (3 μM, %)” value is given as 86%.

Regarding `Cc1ccccc1-c1ccccc1C1CC1C(=O)N1CCCC(NS(C)(=O)=O)C1` (racemic) [Example 66, a mixture of rac-N-{(3R)-1-[(1R,2R)-2-(2′-methyl[1,1′-biphenyl]-2-yl)cyclopropane-1-carbonyl]piperidin-3-yl}methanesulfonamide and rac-N-{(3S)-1-[(1R,2R)-2-(2′-methyl[1,1′-biphenyl]-2-yl)cyclopropane-1-carbonyl]piperidin-3-yl}methanesulfonamide], the “OX2R agonist activity (3 μM, %)” value was determined as 52%.

`CS(=O)(=O)N[C@H]1CCCN(C(=O)C2CC2c2cccc(F)c2-c2c(F)cccc2F)CC1` (mixture of isomers) [Example 194, a mixture of N-{(4S)-1-[(1R,2R)-2-(2′,6,6′-trifluoro[1,1′-biphenyl]-2-yl)cyclopropane-1-carbonyl]azepan-4-yl}methanesulfonamide and N-{(4S)-1-[(1S,2S)-2-(2′,6,6′-trifluoro[1,1′-biphenyl]-2-yl)cyclopropane-1-carbonyl]azepan-4-yl}methanesulfonamide]: the “OX2R agonist activity (3 μM, %)” value is listed as 100%.

For `CCS(=O)(=O)NC[C@H]1[C@@H](F)CN1C(=O)[C@@H]1C[C@@]1(F)c1ccccc1-c1c(F)cccc1F` [Example 426, N-({(2S,3S)-1-[(1S,2S)-2-(2′,6′-difluoro[1,1′-biphenyl]-2-yl)-2-fluorocyclopropane-1-carbonyl]-3-fluoroazetidin-2-yl}methyl)ethanesulfonamide], the “OX2R agonist activity (3 μM, %)” value was determined as 104%.

On to `O=C([C@@H]1C[C@@]1(F)c1ccc(F)cc1-c1c(F)cccc1F)N1C[C@@H](F)[C@H]1CNS(=O)(=O)C1CC1` [Example 429, N-({(2R,3R)-3-fluoro-1-[(1S,2S)-2-fluoro-2-(2′,5,6′-trifluoro[1,1′-biphenyl]-2-yl)cyclopropane-1-carbonyl]azetidin-2-yl}methyl)cyclopropanesulfonamide], for which the “OX2R agonist activity (3 μM, %)” value stood at 99%.

Consider `CO[C@@H]1CN(C(=O)[C@@H]2C[C@@]2(F)c2ccccc2-c2c(F)cccc2F)[C@@H]1CNS(C)(=O)=O` [Example 383, N-({(2R,3R)-1-[(1S,2S)-2-(2′,6′-difluoro[1,1′-biphenyl]-2-yl)-2-fluorocyclopropane-1-carbonyl]-3-methoxyazetidin-2-yl}methyl)methanesulfonamide], for which the “OX2R agonist activity (3 μM, %)” value is on record as 72%.
